row,SMILES,logP
1,Cc1cc(Cl)ccc1NC(=O)c1cc(F)ccc1O,4.89
2,Cc1cc(Br)ccc1NC(=O)c1cc(F)ccc1O,5.15
3,O=C(Nc1ccc(Cl)cc1)c1ccccc1O,4.5
4,Cc1ccccc1NC(=O)c1cc(Cl)ccc1O,4.21
5,O=C(Nc1ccccc1)c1cc(Cl)ccc1O,4.05
6,O=C(Nc1ccc(F)cc1)c1cc(Cl)cc(Cl)c1O,4.76
7,O=C(Nc1ccc(Cl)cc1[N+](=O)[O-])c1cc(Cl)cc(Cl)c1O,5.08
8,O=C(Nc1ccc(F)cc1F)c1cc(Cl)cc(Cl)c1O,4.55
9,O=C(Nc1ccc(Cl)cc1[N+](=O)[O-])c1cc(Br)cc(Br)c1O,5.05
10,O=C(Nc1ccc(Cl)cc1)c1cc(Cl)cc(Cl)c1O,5.15
11,O=C(Nc1ccccc1)c1cc(Cl)cc(Cl)c1O,4.01
12,O=C(Nc1ccccc1[N+](=O)[O-])c1ccccc1O,2.87
13,O=C(Nc1ccccc1Cl)c1ccccc1O,4.35
14,O=C(Nc1ccc(F)cc1F)c1cc(Br)cc(Br)c1O,4.99
15,O=C(Nc1ccc(Cl)cc1Cl)c1ccccc1O,5.49
16,Cc1cc([N+](=O)[O-])ccc1NC(=O)c1cc(Cl)cc(Cl)c1O,4.51
17,O=C(Nc1ccc(Br)cc1)c1ccccc1O,4.51
18,O=C(Nc1ccccc1)c1cc([N+](=O)[O-])ccc1O,3.66
19,O=C(Nc1ccc(Cl)cc1)c1cc(Br)ccc1O,5.02
20,O=C(Nc1ccc(Cl)cc1[N+](=O)[O-])c1ccccc1O,4.09
21,Cc1cc(Cl)ccc1NC(=O)c1ccccc1O,5.18

# Source: the OPERA property sets (Mansouri et al. 2018)
